For orientation: MIC means the lowest concentration that inhibits growth of the organism. Low values mean greater potency, high ones weaker potency. In general, IC50 refers to the concentration needed to halve the response being measured. Lower therefore signals greater potency.

Assay [1] deals with Escherichia coli. Put plainly: Antimicrobial activity against Escherichia coli. In kind it is functional.
Assay [2] concerns Salmonella enterica. Put plainly: Antimicrobial activity against Salmonella enterica. In kind it is functional.
Assay [3] deals with Pseudomonas aeruginosa. Put plainly: Antimicrobial activity against Pseudomonas aeruginosa. In kind it is functional, organism-based.
The target in assay [4] is Lipopolysaccharide (LPS). As to the kind of experiment: Displacement of dansyl-PMB from LPS by isothermal titration calorimetry. A general note: In ITC the heat of successive injections is recorded.

Values after ≈ are worked out from the molar mass of the structure shown. Where a SMILES comes first, the peptide text is derived from it. Bridges are numbered along the chain shown (N, C = ends). [ ]: non-standard residue; d: D form. The star is where a group is joined. Octanoyl = CCCCCCCC(=O)*; Dab = NCC[C@H](N)C(=O)O Bounds are passed on as bounds.

In the case of `CCCCCCCC(=O)N[C@@H](CCN)C(=O)N[C@H](C(=O)N[C@@H](CCN)C(=O)N[C@H]1CCNC(=O)[C@H]([C@@H](C)O)NC(=O)[C@H](CCN)NC(=O)[C@H](CCN)NC(=O)[C@H](CC(C)C)NC(=O)[C@@H](C)NC(=O)[C@H](CCN)NC1=O)[C@@H](C)O`, the MIC in assay [1], in assay [2] and in assay [3] was 1 µM (≈ 1.11 µg/mL) in each case. For the same compound, in assay [4], the IC50 came out at 6 µM.

Regarding `CCCCCCCC(=O)N[C@@H](CCN)C(=O)N[C@H](C(=O)N[C@@H](CCN)C(=O)N[C@H]1CCNC(=O)[C@H]([C@@H](C)O)NC(=O)[C@H](CCN)NC(=O)[C@H](CCN)NC(=O)[C@H](C)NC(=O)[C@@H](Cc2ccccc2)NC(=O)[C@H](CCN)NC1=O)[C@@H](C)O`, the minimum inhibitory concentration (MIC) in assay [1], in assay [2] and in assay [3] was 1 µM (≈ 1.15 µg/mL) throughout. The compound also came in with an IC50 in assay [4] of 5 µM.

Take `CCCCCCCC(=O)N[C@@H](CCN)C(=O)N[C@H](C(=O)N[C@@H](CCN)C(=O)N[C@H]1CCNC(=O)[C@H]([C@@H](C)O)NC(=O)[C@H](CCN)NC(=O)[C@H](CCNC(C)=O)NC(=O)[C@H](CC(C)C)NC(=O)[C@@H](Cc2ccccc2)NC(=O)[C@H](CCN)NC1=O)[C@@H](C)O`: the MIC in assay [1] is 2 µM (≈ 2.46 µg/mL); in assay [2], 4 µM (≈ 4.93 µg/mL); in assay [3], 2 µM (≈ 2.46 µg/mL). This compound returned an IC50 in assay [4] of 26 µM.

Regarding `CCCCCCCC(=O)N[C@@H](CCN)C(=O)N[C@H](C(=O)N[C@@H](CCN)C(=O)N[C@H]1CCNC(=O)[C@H]([C@@H](C)O)NC(=O)[C@H](CCN)NC(=O)[C@H](CCN)NC(=O)[C@H](C)NC(=O)[C@@H](C)NC(=O)[C@H](CCN)NC1=O)[C@@H](C)O`, the MIC is 2 µM (≈ 2.14 µg/mL) in assay [1], 32 µM (≈ 34.3 µg/mL) in assay [2] and 4 µM (≈ 4.29 µg/mL) in assay [3]. The compound further showed an IC50 in assay [4] of 8 µM.

On to `CCCCCCCC(=O)N[C@H]1CCNC(=O)[C@H]([C@@H](C)O)NC(=O)[C@H](CCN)NC(=O)[C@H](CCN)NC(=O)[C@H](CC(C)C)NC(=O)[C@@H](Cc2ccccc2)NC(=O)[C@H](CCN)NC1=O`, for which the MIC in assay [1], in assay [2] and in assay [3] was 128 µM (≈ 114 µg/mL) throughout. In assay [4], this compound registered an IC50 of 30 µM.

With `CCCCCCCC(=O)N[C@@H](CCN)C(=O)N[C@H]1CCNC(=O)[C@H]([C@@H](C)O)NC(=O)[C@H](CCN)NC(=O)[C@H](CCN)NC(=O)[C@H](CC(C)C)NC(=O)[C@@H](Cc2ccccc2)NC(=O)[C@H](CCN)NC1=O`, the MIC in assay [1] was 16 µM (≈ 15.8 µg/mL); in assay [2], 16 µM (≈ 15.8 µg/mL); in assay [3], 8 µM (≈ 7.91 µg/mL). The compound also gave an IC50 in assay [4] of 14 µM.

For the compound `CCCCCCCC(=O)N[C@@H](CCN)C(=O)N[C@H](C(=O)N[C@@H](CCN)C(=O)N[C@H]1CCNC(=O)[C@H]([C@@H](C)O)NC(=O)[C@H](CCN)NC(=O)[C@H](CCN)NC(=O)CNC(=O)CNC(=O)[C@H](CCN)NC1=O)[C@@H](C)O` (Octanoyl-[Dab]T[Dab][Dab][Dab]GG[Dab][Dab]T; lactam 4-C), the MIC in assay [1] is 256 µM (≈ 267 µg/mL); in assay [2] it was ≥ 512 µM; in assay [3] it was ≥ 512 µM. In addition, the IC50 in assay [4] was 20 µM.

For `CCCCCCCC(=O)N[C@@H](CCN)C(=O)N[C@H](C(=O)N[C@@H](CCN)C(=O)N[C@H]1CCNC(=O)[C@H]([C@@H](C)O)NC(=O)[C@H](CCN)NC(=O)[C@H](CCN)NC(=O)[C@H](CC(C)C)NC(=O)CNC(=O)[C@H](CCN)NC1=O)[C@@H](C)O` (Octanoyl-[Dab]T[Dab][Dab][Dab]GL[Dab][Dab]T; lactam 4-C), the MIC in assay [1] was 2 µM (≈ 2.2 µg/mL); in assay [2] it was 16 µM (≈ 17.6 µg/mL); in assay [3], 1 µM (≈ 1.1 µg/mL). For the same compound, the IC50 in assay [4] stood at 11 µM.

For the origin of these results see ChEMBL document CHEMBL1156251, “Structure--activity relationships of polymyxin antibiotics” (J Med Chem, 2010).
